Test results reported in PubChem BioAssay (NCI).
Several values for one entry are separate records, joined by “and”; a condition that tells them apart may be missing. Identical values can stand only once.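 Compound exposure: 48 hours, 5 concentrations, 96-well plates. At the GI50, growth is halved. TGI: total growth inhibition.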

Tests used:
Test in all cases: inhibition of tumour cell growth, NCI panel, 48 h
M14 melanoma = tested on: M14 melanoma
TK-10 renal = tested on: TK-10 renal
ACHN renal = tested on: ACHN renal
LXFL 529 NSCLC = tested on: LXFL 529 NSCLC
EKVX NSCLC = tested on: EKVX NSCLC
RXF 393 renal = tested on: RXF 393 renal
HCC-2998 colon = tested on: HCC-2998 colon
SR leukemia = tested on: SR leukemia
RPMI-8226 leukemia = tested on: RPMI-8226 leukemia
MDA-N = tested on: MDA-N

Row | SMILES | TGI (M14 melanoma) [µM] | TGI (TK-10 renal) [µM] | TGI (ACHN renal) | TGI (LXFL 529 NSCLC) | TGI (EKVX NSCLC) | TGI (RXF 393 renal) | TGI (HCC-2998 colon) [µM] | TGI (SR leukemia) | TGI (RPMI-8226 leukemia) | TGI (MDA-N) | GI50 (M14 melanoma) [µM] | GI50 (ACHN renal) [µM] | GI50 (EKVX NSCLC) [µM] | GI50 (RXF 393 renal) [µM] | GI50 (HCC-2998 colon) [µM] | GI50 (RPMI-8226 leukemia) [µM] | GI50 (TK-10 renal) | GI50 (LXFL 529 NSCLC) [µM] | GI50 (SR leukemia) [µM] | GI50 (MDA-N) [µM]
1 | Cc1ccc(/C=C/C(=O)c2ccc(Cl)c(Cl)c2)cc1 | > 100 | > 100 | > 100 µM | > 100 µM | > 100 µM | > 100 µM | > 100 | > 100 µM | – | – | – | – | – | – | – | – | – | – | – | –
2 | Cc1cccc(-c2nnc3s/c(=C\c4ccc(N(C)C)cc4)c(=O)n23)c1 | > 100 | > 100 | > 100 µM | > 100 µM | > 100 µM | > 100 µM | > 100 | – | > 100 µM | – | – | – | – | – | – | – | – | – | – | –
3 | CC(C)(C)C(=O)N1C(C(=O)O)Cc2ccccc2[C@@H]1Cc1ccccc1 (some centres not stated) | > 100 | > 100 | > 100 µM | > 100 µM | > 100 µM | > 100 µM | > 100 | – | > 100 µM | – | – | – | – | – | – | – | – | – | – | –
4 | O=C1C2CCN(CC2)C1CN1CCOCC1 (configuration not stated) | 6.46 | 13.2 | 4.18 µM | 3.88 µM | 33.8 µM | 5.33 µM | 29.2 | 35.5 µM | 13.7 µM | 20.1 µM | – | – | – | – | – | – | – | – | – | –
5 | CCCCCCCCCCCCSC(=S)c1c(C)[nH]n(-c2ccccc2)c1=O | > 50 | > 50 | > 50 µM | > 50 µM | > 50 µM | 24.5 µM | 21.5 | – | > 50 µM | – | – | – | – | – | – | – | – | – | – | –
6 | Nc1nc(=O)n(C2CCC(CO)O2)cc1F (configuration not stated) | > 100 | > 100 | > 100 µM | > 100 µM | > 100 µM | > 100 µM | > 100 | – | > 100 µM | – | – | – | – | – | – | – | – | – | – | –
7 | O=C(C[n+]1ccccc1)N/N=C(/CCC(=O)N(Cc1ccccc1)Cc1ccccc1)CC(=O)c1ccccc1 | > 100 | > 100 | > 100 µM | > 100 µM | > 100 µM | > 100 µM | > 100 | > 100 µM | > 100 µM | – | – | – | – | – | – | – | – | – | – | –
8 | CSC(=O)C[C@@]12O[C@@H]([C@@H](C)C3CCC4[C@@H]5C(O)CC6=CC(=O)C=C[C@]6(C)C5CC[C@@]43C)C[C@](C)(O1)C(C)(C)O2 (some centres not stated) | 33.3 | 34.8 | – | 26.4 µM | – | 24.4 µM | 41.6 | 34.8 µM | 34.3 µM | – | – | – | – | – | – | – | – | – | – | –
9 | COc1ccc(C(=O)C2CCC(C(=O)O)C2)cc1 (configuration not stated) | > 100 | > 100 | > 100 µM | > 100 µM | > 100 µM | > 100 µM | > 100 | > 100 µM | > 100 µM | – | – | – | – | – | – | – | – | – | – | –
10 | CCOC(=O)C12CCCC1(O)N(NC(=O)OC)C(C)=C2C(=O)OC (configuration not stated) | > 100 | > 100 | > 100 µM | > 100 µM | > 100 µM | – | > 100 | – | > 100 µM | – | – | – | – | – | – | – | – | – | – | –
11 | NC(=O)c1cc(N2CC2)c([N+](=O)[O-])cc1[N+](=O)[O-] | > 200 | > 200 | > 200 µM | – | > 200 µM | > 200 µM | > 200 | > 200 µM | > 200 µM | > 200 µM | > 200 | > 200 | > 200 | > 200 | > 200 | > 200 | – | – | – | –
12 | O=C(c1c(F)c(F)c(F)c(F)c1F)c1c(F)c(F)c(F)c(F)c1F | 5.97 | 2.47 | 3.09 µM | – | 4.06 µM | 2.94 µM | 3.47 | 1.07 µM | 4.71 µM | 3.11 µM | – | – | – | – | – | – | – | – | – | –
13 | COC(=O)CCC(=O)Nc1ccc(Cl)cc1C | > 100 | > 100 | > 100 µM | > 100 µM | > 100 µM | > 100 µM | > 100 | > 100 µM | > 100 µM | – | – | – | – | – | – | – | – | – | – | –
14 | OC1CC2CCC(C1)N2CCCN1c2ccccc2Sc2ccc(Cl)cc21 (configuration not stated) | 3.56 | 3.61 | 7.07 µM | – | 10.1 µM | 4.04 µM | 0.959 | 5.34 µM | 4.42 µM | 3.62 µM | – | – | – | – | – | – | – | – | – | –
15 | CN(C)c1ccc(/C=c2\sc3nnc(-c4ccco4)n3c2=O)cc1 | > 100 | > 100 | – | > 100 µM | > 100 µM | > 100 µM | > 100 | – | > 100 µM | – | – | – | – | – | – | – | – | – | – | –
16 | COc1ccc(/C=C/c2cc(OC)c(OC(C)=O)c(OC)c2)cc1 | > 100 | – | > 100 µM | > 100 µM | > 100 µM | – | 39 | – | > 100 µM | – | – | – | – | – | – | – | – | – | – | –
17 | O=C1c2ccccc2-c2c3c(cc4ccnc1c24)OCO3 | > 100 | – | 24 µM and 29.3 µM | 51.5 µM and > 100 µM | 11.7 µM and 35.7 µM | 18.4 µM and 33 µM | 60.1 | – | 29.3 µM and 54.4 µM | – | – | – | – | – | – | – | 3.02 µM and 10.2 µM | – | – | –
18 | CC(Oc1ccc2c(-c3ccc(Cl)cc3)cc(=O)oc2c1)C(=O)O (configuration not stated) | > 100 | > 100 | > 100 µM | > 100 µM | > 100 µM | > 100 µM | > 100 | > 100 µM | – | – | – | – | – | – | – | – | – | – | – | –
19 | CCN(CC)CCN(CC)CC.CCN(CC)CCN(CC)CC.[Cu+2].[Cu+2].[O-][Cl+3]([O-])([O-])[O-].[OH3+].[OH3+] | > 100 | > 100 | > 100 µM | > 100 µM | – | – | – | > 100 µM | > 100 µM | – | > 100 | > 100 | – | – | – | 83.2 | 96.7 µM | > 100 | > 100 | –
20 | Cc1ccc(NCC2(/N=C/c3ccccc3)OC(CO)C(O)C2O)cc1 (configuration not stated) | > 100 | > 100 | > 100 µM | > 100 µM | – | – | > 100 | > 100 µM | > 100 µM | – | – | – | – | – | – | – | – | – | – | –
21 | O=C(O)Cc1cccc2c(=O)cc(-c3ccccc3)oc12 | > 1000 | > 1000 | > 1000 µM | – | 250 µM and > 1000 µM | 250 µM and > 1000 µM | > 1000 | 250 µM and > 917 µM | 250 µM and > 1000 µM | 250 µM and > 893 µM | 519 | 813 | 611 | > 862 | > 1000 | 388 | 990 µM | – | – | 176
22 | CCC[CH2][Sn](=[O])[CH2]CCC | > 50 | > 50 | > 50 µM | > 50 µM | > 50 µM | > 50 µM | > 50 | > 50 µM | > 50 µM | – | > 50 | > 50 | > 50 | 47.7 | > 50 | > 50 | > 50 µM | > 50 | > 50 | –
